{"source": "BindingDB's records for doi:10.7270/Q20K2778", "about": "(The Scripps Research Institute Molecular Screening Center, 2013)", "data": [{"target": "Methyl-CpG-binding domain protein 2 (Homo sapiens, UniProt Q9UBB5)", "sequence (Q9UBB5 whole entry, the tested form may be a part)": "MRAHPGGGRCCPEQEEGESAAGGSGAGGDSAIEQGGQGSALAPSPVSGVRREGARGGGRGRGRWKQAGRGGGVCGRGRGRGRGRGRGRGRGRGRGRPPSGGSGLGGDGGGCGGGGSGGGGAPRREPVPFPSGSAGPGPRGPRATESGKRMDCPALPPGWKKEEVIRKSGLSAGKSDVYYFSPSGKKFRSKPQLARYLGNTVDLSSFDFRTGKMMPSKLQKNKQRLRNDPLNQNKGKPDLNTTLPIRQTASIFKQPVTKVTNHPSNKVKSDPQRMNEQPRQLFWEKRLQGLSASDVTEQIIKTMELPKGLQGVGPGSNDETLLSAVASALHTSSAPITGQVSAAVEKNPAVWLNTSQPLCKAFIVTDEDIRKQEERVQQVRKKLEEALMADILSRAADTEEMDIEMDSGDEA", "experiment": "MBD2-DBD methyl-oligonucleotide interaction blockers – biochemical, 5-meCpG oligonucleotide, dose response (AID 720645)", "units": {"IC50": "µM"}, "values": [{"compound": "Cc1ccc2c(Cl)c(Cc3ccccc3)c(=S)[nH]c2n1", "note": "[MLS001182542]", "IC50": 8.02}, {"compound": "COc1cc(C(c2c(C)[nH][nH]c2=O)c2c(C)[nH][nH]c2=O)cc([N+](=O)[O-])c1O", "note": "[4-[(3-methoxy-5-nitro-4-oxidanyl-phenyl)-(3-methyl-5-oxidanylidene-1,2-dihydropyrazol-4-yl)methyl]-5-methyl-1,2-dihydropyrazol-3-one]", "IC50": 43.8}, {"compound": "O=C(O)CSc1cc(NS(=O)(=O)c2ccc(Cl)cc2)c2ccccc2c1O", "note": "[2-[4-[(4-chlorophenyl)sulfonylamino]-1-hydroxynaphthalen-2-yl]sulfanylacetic acid]", "IC50": 4.87}, {"compound": "COc1ccc(-c2csc(/C(C#N)=C/C3C=CC(=O)C([N+](=O)[O-])=C3)n2)cc1OC", "note": "(centres undefined) [(E)-2-[4-(3,4-Dimethoxy-phenyl)-thiazol-2-yl]-3-(4-hydroxy-3-nitro-phenyl)-acrylonitrile]", "IC50": 4.78}]}]}
